From paper PMC4580469, “Expression and Purification of Human Membrane Progestin Receptor α (mPRα)” (PLoS ONE, 2015)

Target: T1, human membrane progestin receptor α (hmPRα) (Homo sapiens, UniProt Q86WK9)
T1 construct: gene PAQR7; DDM-solubilized and purified over Ni-NTA, Cellufine Amino and SP-Sepharose; ~50 kDa band, theoretical 52 kDa with signal
T1 sequence (Q86WK9 1-346): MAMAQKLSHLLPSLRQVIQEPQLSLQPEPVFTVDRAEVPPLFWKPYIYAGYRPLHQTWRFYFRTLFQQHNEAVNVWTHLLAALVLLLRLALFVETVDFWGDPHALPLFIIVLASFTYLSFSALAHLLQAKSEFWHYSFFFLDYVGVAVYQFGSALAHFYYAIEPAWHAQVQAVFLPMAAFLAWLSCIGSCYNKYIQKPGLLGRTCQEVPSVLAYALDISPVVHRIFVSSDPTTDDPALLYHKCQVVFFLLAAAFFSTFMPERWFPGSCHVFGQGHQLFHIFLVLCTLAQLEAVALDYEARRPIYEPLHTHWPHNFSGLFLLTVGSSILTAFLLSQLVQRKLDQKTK
Test: radioligand saturation filter binding, Scatchard analysis

- Kd: 5.2 nM
SMILES: CC(=O)[C@H]1CC[C@H]2[C@@H]3CCC4=CC(=O)CC[C@]4(C)[C@H]3CC[C@]12C [progesterone]
